What all share (assay type): functional
In one assay the test system is Haemophilus influenzae. The assay can be described thus: Antibacterial activity against Haemophilus influenzae ATCC 49247. Conditions: Haemophilus influenzae, ATCC 49247; read-out: MIC.
The next assay concerns Pseudomonas aeruginosa. The assay can be described thus: Antibacterial activity against Pseudomonas aeruginosa PAO1. Particulars: Pseudomonas aeruginosa, PAO1; read-out: MIC.
A further assay deals with Streptococcus pneumoniae. The assay can be described thus: Antibacterial activity against Streptococcus pneumoniae IID554.
The test system of the next assay is Enterococcus faecium. Description: Antibacterial activity against VanA-type vancomycin-resistant Enterococcus faecium A2373. Conditions: Enterococcus faecium, A2373; read-out: MIC.
The test system of the next assay is Moraxella catarrhalis. The assay can be described thus: Antibacterial activity against Moraxella catarrhalis ATCC 25238. Conditions: Moraxella catarrhalis, ATCC 25238; read-out: MIC.
Another assay concerns Acinetobacter baumannii. The assay can be described thus: Antibacterial activity against Acinetobacter baumannii IID876. Conditions: Acinetobacter baumannii, IID876; read-out: MIC.
For another assay, the system named is Enterococcus faecalis. Description: Antibacterial activity against Enterococcus faecalis ATCC 29212. Particulars: Enterococcus faecalis, ATCC 29212; read-out: MIC.
In a further assay the test system is Staphylococcus aureus. The assay can be described thus: Antibacterial activity against Staphylococcus aureus Smith.
A further assay relates to Escherichia coli. Description: Antibacterial activity against Escherichia coli ATCC 25922. Particulars: Escherichia coli, ATCC 25922; read-out: MIC.
The mark [1] stands for this setting: Streptococcus pneumoniae, IID554, read-out: MIC.
Setting [2] is: Staphylococcus aureus, Smith, read-out: MIC.

Values after ≈ are worked out from the molar mass of the structure shown.

Turning to `CN1CCN(C)c2nc(CNC34CCC(C[C@]5(O)Cn6c(=O)ccc7ncc(F)c5c76)(CC3)OC4)ccc21`, the MIC with Haemophilus influenzae, in the assay with Pseudomonas aeruginosa, with Streptococcus pneumoniae (setting [1]), in the assay with Enterococcus faecium, in the assay on Moraxella catarrhalis and in the assay with Acinetobacter baumannii was 32 µg/mL (≈ 61.5 µM) in each case. The values for the MIC with Enterococcus faecalis, in the assay with Staphylococcus aureus (setting [2]) and in the assay on Escherichia coli were 32 µg/mL (≈ 61.5 µM), 8 µg/mL (≈ 15.4 µM) and 32 µg/mL (≈ 61.5 µM), respectively.
As to `O=c1ccc2ncc(F)c3c2n1C[C@@]3(O)CC12CCC(NCc3ccc4c(c3Cl)OCCO4)(CC1)CO2`, the MIC in the assay with Haemophilus influenzae worked out at 32 µg/mL (≈ 60.6 µM); in the assay on Pseudomonas aeruginosa, 32 µg/mL (≈ 60.6 µM); in the assay on Streptococcus pneumoniae (setting [1]), 1 µg/mL (≈ 1.89 µM); in the assay with Enterococcus faecium it was 32 µg/mL (≈ 60.6 µM); in the assay with Moraxella catarrhalis it was 32 µg/mL (≈ 60.6 µM); with Acinetobacter baumannii, 32 µg/mL (≈ 60.6 µM). Further, the MIC in the assay on Enterococcus faecalis amounted to 8 µg/mL (≈ 15.2 µM); in the assay with Staphylococcus aureus (setting [2]), 1 µg/mL (≈ 1.89 µM); in the assay on Escherichia coli it was 32 µg/mL (≈ 60.6 µM).
As for `CC1COc2cnc(CNC34CCC(C[C@]5(O)Cn6c(=O)ccc7ncc(F)c5c76)(CC3)OC4)cc2O1` (stereo in doubt; 21), the MIC with Haemophilus influenzae is 32 µg/mL (≈ 62.9 µM); in the assay with Pseudomonas aeruginosa it was 32 µg/mL (≈ 62.9 µM); in the assay on Streptococcus pneumoniae, 2 µg/mL (≈ 3.93 µM); with Enterococcus faecium, 32 µg/mL (≈ 62.9 µM); in the assay with Moraxella catarrhalis, 32 µg/mL (≈ 62.9 µM); in the assay with Acinetobacter baumannii it was 32 µg/mL (≈ 62.9 µM). In addition, the MIC is 16 µg/mL (≈ 31.5 µM) with Enterococcus faecalis, 4 µg/mL (≈ 7.87 µM) with Staphylococcus aureus and 32 µg/mL (≈ 62.9 µM) in the assay on Escherichia coli.
As to `O=c1ccc2ncc(F)c3c2n1C[C@@]3(O)CC12CCC(NCc3cc4c(cn3)SCCO4)(CC1)CO2`, the MIC with Haemophilus influenzae turned out to be 8 µg/mL (≈ 15.7 µM); in the assay with Pseudomonas aeruginosa, 32 µg/mL (≈ 62.7 µM); in the assay with Streptococcus pneumoniae (setting [1]), 0.25 µg/mL (≈ 0.49 µM); in the assay on Enterococcus faecium, 4 µg/mL (≈ 7.83 µM); in the assay with Moraxella catarrhalis, 0.5 µg/mL (≈ 0.979 µM); in the assay on Acinetobacter baumannii, 2 µg/mL (≈ 3.92 µM). Further, the MIC in the assay on Enterococcus faecalis was found to be 2 µg/mL (≈ 3.92 µM); in the assay with Staphylococcus aureus (setting [2]) it was 0.12 µg/mL (≈ 0.235 µM); in the assay with Escherichia coli, 16 µg/mL (≈ 31.3 µM).
Regarding `O=c1ccc2ncc(F)c3c2n1C[C@@]3(O)CC12CCC(NCc3cc4c(c(Cl)c3Cl)OCCO4)(CC1)CO2`, the MIC with Haemophilus influenzae worked out at 32 µg/mL (≈ 56.9 µM); with Pseudomonas aeruginosa, 32 µg/mL (≈ 56.9 µM); in the assay on Streptococcus pneumoniae (setting [1]), 4 µg/mL (≈ 7.11 µM); with Enterococcus faecium it was 32 µg/mL (≈ 56.9 µM); in the assay with Moraxella catarrhalis, 0.5 µg/mL (≈ 0.889 µM); in the assay with Acinetobacter baumannii it was 32 µg/mL (≈ 56.9 µM). In addition, the MIC in the assay with Enterococcus faecalis was 8 µg/mL (≈ 14.2 µM); with Staphylococcus aureus (setting [2]) it was 1 µg/mL (≈ 1.78 µM); in the assay with Escherichia coli it was 32 µg/mL (≈ 56.9 µM).
Consider `O=c1ccc2ncc(F)c3c2n1C[C@@]3(O)CC12CCC(NCc3cc4c(cn3)OCCS4)(CC1)CO2`, for which the MIC worked out at 8 µg/mL (≈ 15.7 µM) in the assay on Haemophilus influenzae; 32 µg/mL (≈ 62.7 µM) in the assay with Pseudomonas aeruginosa; 0.5 µg/mL (≈ 0.979 µM) with Streptococcus pneumoniae (setting [1]); 8 µg/mL (≈ 15.7 µM) in the assay on Enterococcus faecium; 1 µg/mL (≈ 1.96 µM) with Moraxella catarrhalis; 4 µg/mL (≈ 7.83 µM) in the assay with Acinetobacter baumannii. Besides, the figures for the MIC in the assay with Enterococcus faecalis, with Staphylococcus aureus (setting [2]) and with Escherichia coli were 2 µg/mL (≈ 3.92 µM), 0.25 µg/mL (≈ 0.49 µM) and 32 µg/mL (≈ 62.7 µM), respectively.
`Cc1cc2c(nc1CNC13CCC(C[C@]4(O)Cn5c(=O)ccc6ncc(F)c4c65)(CC1)OC3)NC(=O)CO2`: the MIC in the assay with Haemophilus influenzae turned out to be 4 µg/mL (≈ 7.67 µM); in the assay on Pseudomonas aeruginosa it was 32 µg/mL (≈ 61.4 µM); in the assay with Streptococcus pneumoniae (setting [1]), 4 µg/mL (≈ 7.67 µM); in the assay on Enterococcus faecium, 32 µg/mL (≈ 61.4 µM); in the assay with Moraxella catarrhalis, 0.5 µg/mL (≈ 0.959 µM); in the assay on Acinetobacter baumannii it was 4 µg/mL (≈ 7.67 µM). Besides, the MIC in the assay with Enterococcus faecalis was 8 µg/mL (≈ 15.3 µM); with Staphylococcus aureus (setting [2]), 1.5 µg/mL (≈ 2.88 µM); with Escherichia coli it was 8 µg/mL (≈ 15.3 µM).
As for `N#Cc1c(CNC23CCC(C[C@]4(O)Cn5c(=O)ccc6ncc(F)c4c65)(CC2)OC3)ncc2c1OCCO2`, the MIC in the assay with Haemophilus influenzae, with Pseudomonas aeruginosa, in the assay on Streptococcus pneumoniae (setting [1]), with Enterococcus faecium, with Moraxella catarrhalis and in the assay on Acinetobacter baumannii was 32 µg/mL (≈ 61.6 µM) each time. The results for the MIC in the assay with Enterococcus faecalis, with Staphylococcus aureus (setting [2]) and with Escherichia coli were 32 µg/mL (≈ 61.6 µM), 8 µg/mL (≈ 15.4 µM) and 32 µg/mL (≈ 61.6 µM), respectively.

The record behind these values is ChEMBL document CHEMBL3425423, “Hydroxy tricyclic 1,5-naphthyridinone oxabicyclooctane-linked novel bacterial topoisomerase inhibitors as broad-spectrum antibacterial agents-SAR of RHS moiety (Part-3)” (Bioorg Med Chem Lett, 2015).
